Experimental data as given in PubChem BioAssay AID248 (DTP/NCI, 2004).
Where “and” joins values, the source holds several entries; their conditions need not be identical. Equal entries are not always repeated. Toxic doses and inconclusive results are not listed. Rule as the data show it: active = T/C of 150% or more; inactive = T/C below 125%.

System: L1210 leukemia ip in BDF1 mice, survival T/C
Assay: NCI In Vivo Anticancer Drug Screen. Data for tumor model L1210 Leukemia (intraperitoneal) in B6D2F1 (BDF1) mice
Conditions: endpoint: mean survival time, higher = longer survival
Outline: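 Antitumor effect is assessed in tumor-bearing animals. Survival in the compound arm is compared with a vehicle-dosed control arm and expressed as their quotient.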

[1] = dose: 100.0 mg/kg/injection, schedule: Q01DX001 (ip), vehicle: carboxymethylcellulose (CMC)
[2] = dose: 100.0 mg/kg/injection, schedule: Q04DX003 (ip), vehicle: saline
[3] = dose: 200.0 mg/kg/injection, schedule: Q01DX001 (ip), vehicle: carboxymethylcellulose (CMC)
[4] = dose: 200.0 mg/kg/injection, schedule: Q04DX003 (ip), vehicle: saline
[5] = dose: 400.0 mg/kg/injection, schedule: Q01DX001 (ip), vehicle: carboxymethylcellulose (CMC)
[6] = dose: 400.0 mg/kg/injection, schedule: Q04DX003 (ip), vehicle: saline
[7] = dose: 100.0 mg/kg/injection, schedule: Q01DX009 (ip), vehicle: saline with Tween-80
[8] = dose: 100.0 mg/kg/injection, schedule: Q04DX003 (ip), vehicle: saline with Tween-80
[9] = dose: 200.0 mg/kg/injection, schedule: Q01DX009 (ip), vehicle: saline with Tween-80
[10] = dose: 200.0 mg/kg/injection, schedule: Q04DX003 (ip), vehicle: saline with Tween-80
[11] = dose: 400.0 mg/kg/injection, schedule: Q01DX009 (ip), vehicle: saline with Tween-80
[12] = dose: 400.0 mg/kg/injection, schedule: Q04DX003 (ip), vehicle: saline with Tween-80
[13] = dose: 50.0 mg/kg/injection, schedule: Q04DX003 (ip), vehicle: saline with Tween-80
[14] = dose: 50.0 mg/kg/injection, schedule: Q01DX009 (ip), vehicle: saline
[15] = dose: 100.0 mg/kg/injection, schedule: Q01DX009 (ip), vehicle: saline
[16] = dose: 100.0 mg/kg/injection, schedule: Q04DX003 (ip), vehicle: Klucel (hydroxypropylcellulose) (HPC)
[17] = dose: 200.0 mg/kg/injection, schedule: Q04DX003 (ip), vehicle: Klucel (hydroxypropylcellulose) (HPC)
[18] = dose: 25.0 mg/kg/injection, schedule: Q04DX003 (ip), vehicle: saline
[19] = dose: 50.0 mg/kg/injection, schedule: Q04DX003 (ip), vehicle: saline
[20] = dose: 100.0 mg/kg/injection, schedule: Q04DX002 (ip), vehicle: saline
[21] = dose: 50.0 mg/kg/injection, schedule: Q04DX003 (ip), vehicle: Klucel (hydroxypropylcellulose) (HPC)
[22] = dose: 12.5 mg/kg/injection, schedule: Q04DX003 (ip), vehicle: Klucel (hydroxypropylcellulose) (HPC)
[23] = dose: 25.0 mg/kg/injection, schedule: Q01DX009 (ip), vehicle: Klucel (hydroxypropylcellulose) (HPC)
[24] = dose: 25.0 mg/kg/injection, schedule: Q04DX003 (ip), vehicle: Klucel (hydroxypropylcellulose) (HPC)
[25] = dose: 50.0 mg/kg/injection, schedule: Q01DX009 (ip), vehicle: Klucel (hydroxypropylcellulose) (HPC)
[26] = dose: 100.0 mg/kg/injection, schedule: Q01DX009 (ip), vehicle: Klucel (hydroxypropylcellulose) (HPC)
[27] = dose: 200.0 mg/kg/injection, schedule: Q01DX009 (ip), vehicle: Klucel (hydroxypropylcellulose) (HPC)
[28] = dose: 400.0 mg/kg/injection, schedule: Q01DX009 (ip), vehicle: Klucel (hydroxypropylcellulose) (HPC)

Measured: T/C

O=S(=O)([O-])CC[n+]1ccc(-c2ccccc2)o1
inactive: [1] 94 % of control | [2] 110 % of control | [3] 97 % of control | [4] 103 % of control | [5] 97 % of control | [6] 118 % of control

NC(=O)C(N)CCO (stereo not drawn)
inactive: dose: 75.0 mg/kg/injection, schedule: Q04DX003 (ip), vehicle: saline 104 % of control | dose: 150.0 mg/kg/injection, schedule: Q04DX003 (ip), vehicle: saline 104 % of control | dose: 300.0 mg/kg/injection, schedule: Q04DX003 (ip), vehicle: saline 100 % of control

Clc1ccc(C(=Cc2ccccc2Br)c2ccc(Cl)cc2)cc1
inactive: [7] 100 % of control | [8] 98 % of control | [9] 100 % of control | [10] 98 % of control | [11] 96 % of control | [12] 101 % of control

COc1ccc(OC(=O)CCCl)cc1
inactive: dose: 50.0 mg/kg/injection, schedule: Q01DX009 (ip), vehicle: saline with Tween-80 98 % of control | [13] 104 % of control | [7] 104 % of control | [8] 95 % of control | [9] 105 % of control | [10] 95 % of control | [11] 121 % of control | [12] 104 % of control

CC(=O)Nc1ccc(O)c2ccccc12
inactive: dose: 100.0 mg/kg/injection, schedule: Q04DX002 (ip), vehicle: Klucel (hydroxypropylcellulose) (HPC) 92 % of control | dose: 200.0 mg/kg/injection, schedule: Q04DX002 (ip), vehicle: Klucel (hydroxypropylcellulose) (HPC) 89 % of control | dose: 400.0 mg/kg/injection, schedule: Q04DX002 (ip), vehicle: Klucel (hydroxypropylcellulose) (HPC) 99 % of control

Clc1ccc(COC(Cn2ccnc2)c2ccc(Cl)cc2Cl)cc1 (stereo not drawn)
inactive: dose: 25.0 mg/kg/injection, schedule: Q04DX002 (ip), vehicle: DMSO 93 % of control | dose: 50.0 mg/kg/injection, schedule: Q04DX002 (ip), vehicle: DMSO 93 % of control | dose: 100.0 mg/kg/injection, schedule: Q04DX002 (ip), vehicle: DMSO 97 % of control

Cc1ccc(S(=O)(=O)Nc2c(C)cc([N+](=O)[O-])cc2C)cc1
inactive: dose: 50.0 mg/kg/injection, schedule: Q01DX001 (ip), vehicle: carboxymethylcellulose (CMC) 119 % of control | [1] 96 % of control | [3] 102 % of control | [5] 100 % of control

CN(C=O)COCN(C)C=O
inactive: dose: 100.0 mg/kg/injection, schedule: Q01DX001 (ip), vehicle: other 98 % of control | dose: 100.0 mg/kg/injection, schedule: Q04DX003 (ip), vehicle: other 98 % of control | dose: 200.0 mg/kg/injection, schedule: Q01DX001 (ip), vehicle: other 97 % of control | dose: 200.0 mg/kg/injection, schedule: Q04DX003 (ip), vehicle: other 102 % of control | dose: 400.0 mg/kg/injection, schedule: Q01DX001 (ip), vehicle: other 97 % of control | dose: 400.0 mg/kg/injection, schedule: Q04DX003 (ip), vehicle: other 104 % of control

CCC(C(=O)O)c1ccccc1 (stereo not drawn)
inactive: [14] 93 % of control | [15] 97 % of control | [2] 89 % of control | dose: 200.0 mg/kg/injection, schedule: Q01DX009 (ip), vehicle: saline 90 % of control | [4] 90 % of control | [6] 95 % of control

O=[N+]([O-])c1cc(Cl)ccc1S(=O)(=O)O
inactive: [16] 101 % of control | [17] 93 % of control | dose: 400.0 mg/kg/injection, schedule: Q04DX003 (ip), vehicle: Klucel (hydroxypropylcellulose) (HPC) 98 % of control

CC1(C)N=C(N)N=C(N)N1c1ccc(CCCCc2ccc(Cl)c(S(=O)(=O)F)c2)c(Cl)c1
inactive: dose: 12.5 mg/kg/injection, schedule: Q01DX009 (ip), vehicle: saline sonified 93 % of control | dose: 12.5 mg/kg/injection, schedule: Q04DX003 (ip), vehicle: saline sonified 96 % of control | dose: 25.0 mg/kg/injection, schedule: Q01DX009 (ip), vehicle: saline sonified 94 % of control | dose: 25.0 mg/kg/injection, schedule: Q04DX003 (ip), vehicle: saline sonified 93 % of control | dose: 50.0 mg/kg/injection, schedule: Q01DX009 (ip), vehicle: saline sonified 98 % of control | dose: 50.0 mg/kg/injection, schedule: Q04DX003 (ip), vehicle: saline sonified 93 % of control

CC(=O)Nc1c(Cc2cc(O)c3ncccc3c2NC(C)=O)cc(O)c2ncccc12
inactive: dose: 75.0 mg/kg/injection, schedule: Q01DX001 (ip), vehicle: other 96 % of control | dose: 150.0 mg/kg/injection, schedule: Q01DX001 (ip), vehicle: other 100 % of control | dose: 300.0 mg/kg/injection, schedule: Q01DX001 (ip), vehicle: other 103 % of control

CNCC(C)CNC
inactive: [18] 94 % of control | [14] 103 % of control | [19] 93 % of control | [15] 103 % of control | [2] 95 % of control and 97 % of control

O=S(=O)(O)c1ccc(CCCCCCCl)cc1
inactive: [20] 93 % of control | dose: 200.0 mg/kg/injection, schedule: Q04DX002 (ip), vehicle: saline 87 % of control

CC(=O)c1c(O)cc(O)cc1-c1cc(=O)c2c(O)ccc(C(C)=O)c2o1
inactive: [1] 103 % of control | [3] 94 % of control

CC(C)(C)CC(C)(C)NCc1ccccc1
inactive: dose: 25.0 mg/kg/injection, schedule: Q04DX003 (ip), vehicle: saline with Tween-80 103 % of control | [13] 92 % of control | [8] 103 % of control

CNC(=O)Oc1cccc(NC(=O)OC(C)C)c1
inactive: [7] 97 % of control | [9] 98 % of control | [11] 92 % of control

COc1ccc(CCC(=O)c2ccccc2)cc1
inactive: [21] 98 % of control | [16] 104 % of control | [17] 107 % of control

Nc1ccc(-c2ccc(NC(=O)C(=O)O)cc2)cc1
inactive: [22] 101 % of control | [23] 95 % of control | [24] 97 % of control | [25] 97 % of control | [21] 111 % of control | [26] 100 % of control | [16] 111 % of control

Nc1ccccc1/C=C/c1ccncc1
inactive: [25] 100 % of control | [26] 92 % of control | [27] 101 % of control | [28] 100 % of control

[Cl][Ge]([c]1ccccc1)([c]1ccccc1)[c]1ccccc1
inactive: [26] 104 % of control | [27] 102 % of control | [28] 95 % of control

C[N+](C)(C)c1ccc(/C=C2/CCCCC2=O)cc1
inactive: dose: 12.5 mg/kg/injection, schedule: Q01DX009 (ip), vehicle: saline 117 % of control | dose: 12.5 mg/kg/injection, schedule: Q04DX003 (ip), vehicle: saline 97 % of control | dose: 25.0 mg/kg/injection, schedule: Q01DX009 (ip), vehicle: saline 100 % of control | [18] 92 % of control | [14] 103 % of control | [19] 106 % of control

CC(=O)OC1=CCC(C(C)(C)C)CC1 (stereo not drawn)
inactive: dose: 12.5 mg/kg/injection, schedule: Q01DX009 (ip), vehicle: Klucel (hydroxypropylcellulose) (HPC) 107 % of control | [22] 96 % of control | [23] 93 % of control | [24] 102 % of control | [21] 106 % of control

CCCCOCc1cc(CN2CCN(C)CC2)c(O)c2ncccc12
inactive: dose: 25.0 mg/kg/injection, schedule: Q04DX002 (ip), vehicle: saline 89 % of control | dose: 50.0 mg/kg/injection, schedule: Q04DX002 (ip), vehicle: saline 95 % of control | [20] 89 % of control
